Source: US20100254940A1, “Compositions and Methods for Regulating an Immune Response in a Subject” (INNATE PHARMA, S.A., priority 2002, published 2010)

Experiments:
[1] = test system: γδ T cell; experiment: γδ T cell amplification from human PBMCs, counting γδ T cell using flow cytometry (given as in vivo EC50); assay type: cell-based; conditions: γδ T cell amplification from human PBMCs, flow cytometry count
Method: The biological activity of γδ T cell amplification from human PBMCs was assessed by counting γδ T cell using flow cytometry.
In vitro proliferation assays and in vitro TNFα release assay are performed essentially as described in Example 3.

[2] = test system: TNFα; experiment: Serum TNFα by ELISA after BrHPP injection in cynomolgus monkeys; assay type: in vivo, cynomolgus monkeys (M. fascicularis)
Method: (§1) Serum cytokines (TNFα and INFg) were detected and quantified with the BIOSOURCE Cytoscreen™ ELISA monkey TNFa and Cytoscreen™ ELISA monkey INFg respectively (purchased from CliniSciences, Montrouge, France) according to the manufacturer's instructions.
(§2) Samples of sera were collected from group 2 animals during the first dose range assay (0 to 80 mg/kg) just before injection then 1 and 4 hours post injection, and assayed by ELISA specific for TNFa and IFNg.
The objective of this GLP study was to explore further the pharmaco-dynamic properties of Phosphostim (BrHPP, 200 mg; GMP batch) alone and in combination with IL-2 following several i.v. administrations to cynomolgus monkeys. In particular, this study was planned to evaluate: • A dose-effect relationship between Phosphostim injection and γδ T cell peripheral amplification; • The pharmaco-dynamic effect of a second, third and up to fifth administration of Phosphostim in male and female animals; • The functionality of in vivo induced γδ T cells, by dosing systemic cytokines after Phosphostim treatment; • The effect of treatment with IL-2 alone and to validate the selected dose of 0.6 million IU/day/animal.
(§3) Phosphostim was administered i.v., as slow infusions (50 ml in 30 minutes), at various dose levels to five groups of two animals (one male+one female). Males received two successive injections of BrHPP (Day 0 and Day 22) before sacrifice and females four injections (Days 0, 22, 52 and 84). Two females, selected upon their level of response to the 4th treatment, received a supplementary injection of BrHPP alone at Day 91, during γδ cell peripheral increase, for systemic cytokine dosages.

[3] = Two-phase repeated dose toxicity study in cynomolgus monkeys, i.v. BrHPP; assay type: in vivo
Method: The objective of the first phase of this non GLP study was to determine BrHPP Maximum Tolerated Dose (MTD) in a group of two cynomolgus monkeys (one male, one female) by escalating doses. The second objective of this study was to characterize the toxicity of daily i.v. administration of Phosphostim for two weeks in two cynomolgus monkeys (one male, one female) at the MTD determined during the first phase of the study. The animals were treated at increasing dose-levels every 3 or 4 days (phase 1) and then at the estimated Maximum Tolerated Dose (MTD) daily for 2 weeks (phase 2).
A total of four cynomolgus monkeys (two males and two females) were divided into 2 groups and treated with BrHPP, by intravenous administration over a 1-hour infusion period as follows:
Group 1 (one male and one female) were administered BrHPP and/or Phosphostim (BrHPP, 200 mg) i.v. at increasing dose-levels (160, 400, 600, 900 and 1200 mg/kg) every 3 or 4 days. Anionic form BrHPP equilvalent to these doses are respectively: 96, 240, 360, 540 and 720 mg/kg. BrHPP was given as a solution after reconstitution in water for injection finally diluted in Ringer lactate under a dose volume of 4, 10 or 15 mL/kg.
Group 2 (one male and one female) were administered BrHPP i.v. daily at 900 mg/kg/day (540 mg/kg/day in anionic form BrHPP equivalent) for 2 weeks.
The animals were checked daily for mortality and clinical signs. Body weight was recorded pre-study and on the day of each administration in phase 1 or twice weekly throughout phase 2, and including on the day of necropsy for phase 2. Food consumption was estimated daily, starting at least 7 days pre-phase. Hematological, blood biochemical and/or peripheral blood lymphocyte subset analysis investigations were performed pre-study, on the day of each administration in phase 1, on day 7 in phase 2 and at the end of both phases. Electrocardiographic and blood pressure recordings were performed pre-study, on the day of each administration in phase 1 and on day 1 and at the end of treatment in phase 2. Blood, for determination of plasma levels of the test item, was sampled on days 1 and 14 in phase 2. On completion of each phase, animals were submitted to a complete macroscopic post-mortem examination and specified tissues preserved. In phase 2, selected body organs were weighed and microscopic examination of selected tissues was performed for all animals.

[4] = test system: IFNγ; experiment: Serum IFNγ by ELISA after BrHPP injection in cynomolgus monkeys; assay type: in vivo, cynomolgus monkeys (M. fascicularis)
Method: as §1, §2, §3

[5] = test system: Vg9Vd2 cells; experiment: EC50 of BrHPP for triggering Vg9Vd2 cells; assay type: cell-based
Method: In vitro, we and others (Lang, 1995) have shown that the activation of Vg9Vd2 cells occurs within minutes after the addition of the molecule. Two mechanisms may prevent the molecule to be active in vivo i) the likely rapid renal clearance of such a small molecule and ii) a degradation process in vivo. […] Nevertheless, the concentration of the molecule, injected by intravenous route in relatively high amount, should be maintained beyond the 20 nM EC50 for a significant time, if no additional, blood cell or organ related degradation process occurs in vivo.

[6] = fifth injection 80 mg/kg without IL2 at peak after fourth injection

With “3-(bromomethyl)-3-butanol-1-yl-diphosphate [BrHPP]” the EC50 [1] was about 1 nM, the “serum level of TNFa” value ([2]; 80 mg/kg, 4 hours post BrHPP injection) was “not further detectable” and the “TNFα in the sera” value ([2]; 80 mg/kg, one hour after injection) was “detectable”. The TNFa level ([2]; fifth injection 80 mg/kg without IL2, 4 hours post injection) was “undetectable at 4 hours post injection”, the “TNFa in the sera” value [2, 6] was “detectable” and the macroscopic post-mortem examination ([3]; Phase 1 or Phase 2) was “No relevant findings”. For the same substance, the lymphocyte count ([3]; Phase 2, 900 mg/kg/day 2 weeks) was “increased lymphocyte count was noted in both animals”, the clinical signs ([3]; both treatment phases) was “no relevant clinical signs were noted” and the blood pressure ([3]; either phase) was “did not affect blood pressure”. For the same substance, the body weight evolution ([3]; either phase) was “had no effect on the body weight evolution”, the food consumption ([3]; either phase) was “unaffected” and the “hematological or blood chemistry changes” value ([3]; phase 1, 160-1200 mg/kg) was “No treatment related hematological or blood chemistry changes”. The mortality ([3]; phase 1: 160-1200 mg/kg every 3 or 4 days, phase 2: 900 mg/kg/day 2 weeks) was “No unscheduled death occurred”, the absolute thymus weight ([3]; phase 2, female) was “slightly lower absolute thymus weight” and the “microscopic findings, female” value ([3]; phase 2, female) was “Lymphoid depletion was seen in the thymus and mesenteric lymph node”. The “microscopic findings, male” value ([3]; phase 2, male) was “increase of follicular germinal center in the mesenteric lymph node”, the “IFNg in the sera” value [4, 6] was “detectable at one hour post injection, and increased at 4 hours post injection” and the “Assessment of IFNγ” value ([4]; first dose range assay 0 to 80 mg/kg, 1 and 4 hours post injection) was “Did not Give Significant Results”. For the same substance, the EC50 [5] was 20 nM.
